# pIC50: −log10 of the molar value.
# Assays:
# WM-266-4 cells = assay: Cell Proliferation Inhibitory Test; assay type: cell-based; conditions: Homo sapiens, 72 h, cultured three days with test compound, MTT, read-out: 50% cell proliferation inhibitory activity (GI50 value)
# Description: WM-266-4 cells (ATCC, USA) were seeded in a 96-well plate and cultured overnight. Then, serial dilutions of the sample containing the test compound were prepared, added to each well and cultured another three days. Thereafter, the cell amount in each well was measured by MTT (MOSMANN, T., Rapid colorimetric assay for cellular growth and survival: application to proliferation and cytotoxicity assays. J. Immunol. Methods, 65, 55-63 (1983)). The 50% cell proliferation inhibitory activity (GI50 value) was calculated from the following formula (3). 100×[(T−T0)/(C−T0)]=50 (3)
# Here, T represents values from the test compound added wells, C represents the value from the well to which the test compound was not added for three days, and To represents an initial measured value at the time of addition of the test compound.
# human mTOR = target: T1, human mTOR (Homo sapiens, UniProt P42345); assay: mTOR Kinase Activity Inhibition Test; assay type: biochemical; conditions: His-tagged mTOR (1362C), biotinylated peptide substrate, ATP, 3 hours at room temperature, fluorescence resonance energy transfer 665 nm/620 nm; read-out: IC50 value of mTOR enzyme inhibitory activity
# T1 construct: the portion corresponding to 1362-2549aa at the C terminus of human mTOR; made in house
# Description: The kinase activity of mTOR was measured in the presence or absence of a test compound. A substrate peptide is phosphorylated by mTOR kinase activity. A complex of streptavidin-XL665 and anti-phosphorylated S6K (Thr389) antibody/anti-mouse IgG-cryptate binds to this phosphorylated peptide. At this moment, fluorescence resonance energy transfer takes place from antibody/anti-mouse IgG-cryptate exposed to light excitation to XL665, which results in emission of fluorescence at 665 nm. The mTOR kinase activity is detected using this principle.
# (1) Sample Preparation and Enzymatic Reaction
# An HEK293 cell line that constitutively expresses a His tag fused human mTOR has been established. His tag was introduced into the N terminus of the portion corresponding to 1362-2549aa at the C terminus of human mTOR. Cell lysate was prepared from this HEK293 cell line constitutively expressing His-tagged mTOR (1362C), and His-tagged mTOR (1362C) was purified using the His tag affinity according to a conventional method.
# Next, an mTOR enzyme solution was prepared, which contains the aforementioned His-tagged mTOR (1362C) enzyme, 8 μg/mL of biotinylated peptide (Biotin-Ahx-[…]-amide (Sigma)), as well as 50 mM HEPES (pH 7.5), 20 mM MnCl2, 1 mg/ml BSA, an appropriate amount of protease inhibitor cocktail (Complete EDTA free, Roche), 100 ng/ml Calyculin A, 4 μg/ml Cantharidin and 10 mM DTT as other components.
# The test compound was dissolved in DMSO, and serial dilutions were prepared with 20 μM ATP solution (50 mM HEPES (pH 7.5), 20 μM ATP) to achieve concentrations necessary for the assay. 5 μL of this compound solution was applied to each well of a 384 well small volume white Greiner plate.
# 5 μL of mTOR enzyme solution was added to the aforementioned well containing the test compound. After mixing, the mixture was incubated at room temperature for 3 hours to carry out the enzymatic reaction.
# The same operation was performed with a solution of DMSO in 20 μM ATP solution as a positive control and with a solution of DMSO in 50 mM HEPES (pH 7.5) as a negative control.
# (2) Detection of Enzymatic Reaction
# After the enzymatic reaction, 5 μl each of an europium solution (a solution of anti-mouse IgG-cryptate (SCETI Medical Labo K.K.) and anti-phosphorylated S6K (Thr389) antibody (Cell Signaling Technology Inc.) in 50 mM HEPES (pH 7.5), 100 mM EDTA and 1.5 mg/ml BSA) and an XL665 solution (a solution of streptavidin-XL665 (SCETI Medical Labo K.K.) in 50 mM HEPES (pH 7.5), 100 mM EDTA, 0.8 M KF and 1.5 mg/ml BSA) were added in this order and then mixed. The mixture was incubated at 4° C. overnight. On the following day, the mixture was returned to room temperature and irradiated with excitation light at 337 nm. Fluorescence at 620 nm and fluorescence at 665 nm were measured with RUBYstar (BMG).
# The mTOR inhibitory activity (%) was calculated using the ratio calculated from the measured values as an index of enzyme activity. Here, the ratio was calculated from the following formula (I). Ratio=10000×665 nm fluorescence value/620 nm fluorescence value (1)
# The mTOR enzyme inhibitory activity (%) was calculated from the following formula (2). mTOR enzyme inhibitory activity (%)=100×[(P−S)/(P−N)] (2)
# P: Ratio in well of positive control
# N: Ratio in well of negative control
# S: Ratio in well containing test compound
# Further, an optimal curve was calculated based upon each concentration of the test compound prepared in serial dilutions and the mTOR enzyme inhibitory activity (%) at that concentration. The concentration at which 50% inhibition occurred was calculated as the IC50 value of mTOR enzyme inhibitory activity.
# T1 sequence (P42345 1362-2549): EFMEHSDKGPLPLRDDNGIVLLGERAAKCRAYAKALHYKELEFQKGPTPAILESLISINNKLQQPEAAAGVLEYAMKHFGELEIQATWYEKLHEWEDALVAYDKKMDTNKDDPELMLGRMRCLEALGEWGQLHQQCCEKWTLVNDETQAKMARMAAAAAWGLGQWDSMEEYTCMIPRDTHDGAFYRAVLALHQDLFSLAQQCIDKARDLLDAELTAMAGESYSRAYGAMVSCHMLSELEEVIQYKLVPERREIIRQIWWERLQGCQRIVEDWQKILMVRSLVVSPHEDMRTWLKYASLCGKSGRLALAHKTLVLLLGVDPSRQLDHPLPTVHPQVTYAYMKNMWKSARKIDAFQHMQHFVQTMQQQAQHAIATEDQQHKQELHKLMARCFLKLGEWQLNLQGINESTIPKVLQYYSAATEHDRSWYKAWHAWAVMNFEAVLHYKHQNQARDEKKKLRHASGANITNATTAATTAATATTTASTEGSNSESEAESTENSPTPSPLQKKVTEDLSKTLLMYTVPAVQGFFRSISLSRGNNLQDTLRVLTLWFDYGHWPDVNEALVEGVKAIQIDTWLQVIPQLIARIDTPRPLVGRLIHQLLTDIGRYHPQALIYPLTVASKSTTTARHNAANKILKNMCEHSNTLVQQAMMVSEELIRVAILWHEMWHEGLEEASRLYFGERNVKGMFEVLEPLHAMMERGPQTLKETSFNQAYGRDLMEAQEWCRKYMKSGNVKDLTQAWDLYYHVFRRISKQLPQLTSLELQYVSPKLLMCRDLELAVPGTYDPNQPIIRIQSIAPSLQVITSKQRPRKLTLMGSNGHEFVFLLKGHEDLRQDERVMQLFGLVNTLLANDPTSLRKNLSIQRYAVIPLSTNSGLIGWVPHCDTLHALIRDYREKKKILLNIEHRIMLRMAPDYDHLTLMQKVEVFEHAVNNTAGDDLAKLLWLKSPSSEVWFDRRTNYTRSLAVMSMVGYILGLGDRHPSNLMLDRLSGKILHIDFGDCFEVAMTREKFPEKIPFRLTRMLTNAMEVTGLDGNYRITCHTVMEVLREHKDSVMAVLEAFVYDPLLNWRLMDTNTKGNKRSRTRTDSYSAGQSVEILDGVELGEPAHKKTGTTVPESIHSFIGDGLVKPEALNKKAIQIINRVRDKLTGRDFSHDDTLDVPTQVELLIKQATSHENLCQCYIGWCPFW
SMILES,pIC50 (human mTOR),GI50 (WM-266-4 cells)
"N#Cc1c[nH]c2ncc(-c3cnc4[nH]c(=O)n(CC5CCOCC5)c4c3)cc12 [Example 95, 5-[2-Oxo-1-(tetrahydro-2H-pyran-4-ylmethyl)-2,3-dihydro-1H-imidazo[4,5-b]pyridin-6-yl]-1H-pyrrolo[2,3-b]pyridine-3-carbonitrile]",> 7.30,3000 to 25000 nM
"CO[C@H]1CC[C@@H](Cn2c(=O)[nH]c3ncc(-c4cnc5[nH]ccc5c4)cc32)OC1 [Example 135, 2,6-Anhydro-1,3,4-trideoxy-5-O-methyl-1-[2-oxo-6-(1H-pyrrolo[2,3-b]pyridin-5-yl)-2,3-dihydro-1H-imidazo[4,5-b]pyridin-1-yl]-D-threo-hexitol]",> 7.30,< 3000 nM
"Cc1c(-c2cnc3[nH]c(=O)n(CC4CCOCC4)c3c2)cnc2[nH]ccc12 [Example 36, 6-(4-Methyl-1H-pyrrolo[2,3-b]pyridin-5-yl)-1-(tetrahydro-2H-pyran-4-ylmethyl)-1,3-dihydro-2H-imidazo[4,5-b]pyridin-2-one]",> 7.30,< 3000 nM
"CCOCc1cc2cc(-c3cnc4[nH]c(=O)n(CC5CCOCC5)c4c3)cnc2[nH]1 [Example 86, 6-[2-(Ethoxymethyl)-1H-pyrrolo[2,3-b]pyridin-5-yl]-1-(tetrahydro-2H-pyran-4-ylmethyl)-1,3-dihydro-2H-imidazo[4,5-b]pyridin-2-one]",5.30 to 7.00,3000 to 25000 nM
"CC(=O)c1c[nH]c2ncc(-c3cnc4[nH]c(=O)n(CC5CCOCC5)c4c3)cc12 [Example 85, 6-(3-Acetyl-1H-pyrrolo[2,3-b]pyridin-5-yl)-1-(tetrahydro-2H-pyran-4-ylmethyl)-1,3-dihydro-2H-imidazo[4,5-b]pyridin-2-one]",5.30 to 7.00,3000 to 25000 nM
"O=c1[nH]c2ncc(-c3cnc4[nH]ccc4c3)cc2n1C[C@H]1COC[C@H](O)C1 (racemic) [Example 66, 1-{[trans-5-Hydroxytetrahydro-2H-pyran-3-yl]methyl}-6-(1H-pyrrolo[2,3-b]pyridin-5-yl)-1,3-dihydro-2H-imidazo[4,5-b]pyridin-2-one]",> 7.30,
"O=c1[nH]c2ncc(-c3cnc4[nH]cnc4c3)cc2n1CC1CCOCC1 [Example 22, 1-(Tetrahydro-2H-pyran-4-ylmethyl)-1,3-dihydro-2H,3′H-6,6′-biimidazo[4,5-b]pyridin-2-one]",> 7.30,
"O=c1[nH]c2ncc(-c3cccc4ncccc34)cc2n1CC1CCOCC1 [Example 13, 6-Quinolin-5-yl-1-(tetrahydro-2H-pyran-4-ylmethyl)-1,3-dihydro-2H-imidazo[4,5-b]pyridin-2-one]",5.30 to 7.00,
"O=c1[nH]c2ncc(-c3cncc4ccccc34)cc2n1CC1CCOCC1 [Example 11, 6-Isoquinolin-4-yl-1-(tetrahydro-2H-pyran-4-ylmethyl)-1,3-dihydro-2H-imidazo[4,5-b]pyridin-2-one]",5.30 to 7.00,
"O=c1[nH]c2ncc(-c3ccnc4ccccc34)cc2n1CC1CCOCC1 [Example 12, 6-Quinolin-4-yl-1-(tetrahydro-2H-pyran-4-ylmethyl)-1,3-dihydro-2H-imidazo[4,5-b]pyridin-2-one]",5.30 to 7.00,
"O=C1Cc2cc(-c3cnc4[nH]c(=O)n(CC5CCOCC5)c4c3)cnc2N1 [Example 30, 6-(2-Oxo-2,3-dihydro-1H-pyrrolo[2,3-b]pyridin-5-yl)-1-(tetrahydro-2H-pyran-4-ylmethyl)-1,3-dihydro-2H-imidazo[4,5-b]pyridin-2-one]",5.30 to 7.00,
"O=C(O)c1cc2cc(-c3cnc4[nH]c(=O)n(CC5CCOCC5)c4c3)ccc2[nH]1 [Example 80, 5-[2-Oxo-1-(tetrahydro-2H-pyran-4-ylmethyl)-2,3-dihydro-1H-imidazo[4,5-b]pyridin-6-yl]-1H-indole-2-carboxylic acid]",5.30 to 7.00,

# Now from value to compound, other results behind:
pIC50 (human mTOR),SMILES,GI50 (WM-266-4 cells)
> 7.30,"Cc1nc2[nH]c(=O)n(C[C@H]3COCCO3)c2cc1-c1cnc2[nH]ccc2c1 [Example 44, 1-[(2S)-1,4-Dioxan-2-ylmethyl]-5-methyl-6-(1H-pyrrolo[2,3-b]pyridin-5-yl)-1,3-dihydro-imidazo[4,5-b]pyridin-2-one]",< 3000 nM
> 7.30,"Cc1nc2[nH]c(=O)n(C[C@H]3COCCO3)c2cc1-c1cnc2[nH]ccc2c1C [Example 45, 1-[(2S)-1,4-Dioxan-2-ylmethyl]-5-methyl-6-(4-methyl-1H-pyrrolo[2,3-b]pyridin-5-yl)-1,3-dihydro-imidazo[4,5-b]pyridin-2-one]",< 3000 nM
> 7.30,"Cc1nc2[nH]c(=O)n(C[C@H]3CC[C@@H](O)CO3)c2cc1-c1cnc2[nH]ccc2c1 [Example 149, 2,6-Anhydro-1,3,4-trideoxy-1-[5-methyl-2-oxo-6-(1H-pyrrolo[2,3-b]pyridin-5-yl)-2,3-dihydro-1H-imidazo[4,5-b]pyridin-1-yl]-L-threo-hexitol]",< 3000 nM
> 7.30,"O=c1[nH]c2ncc(-c3cc4cc[nH]c4nc3Cl)cc2n1CC1CCOCC1 [Example 78, 6-(6-Chloro-1H-pyrrolo[2,3-b]pyridin-5-yl)-1-(tetrahydro-2H-pyran-4-ylmethyl)-1,3-dihydro-2H-imidazo[4,5-b]pyridin-2-one]",< 3000 nM
> 7.30,"Cc1c(-c2cnc3[nH]c(=O)n(C[C@H]4COCCO4)c3c2)cnc2[nH]ccc12 [Example 42, 1-[(2S)-1,4-Dioxan-2-ylmethyl]-6-(4-methyl-1H-pyrrolo[2,3-b]pyridin-5-yl)-1,3-dihydro-imidazo[4,5-b]pyridin-2-one]",< 3000 nM
> 7.30,"O=c1[nH]c2ncc(-c3cc4cc[nH]c4nc3F)cc2n1CC1CCOCC1 [Example 79, 6-(6-Fluoro-1H-pyrrolo[2,3-b]pyridin-5-yl)-1-(tetrahydro-2H-pyran-4-ylmethyl)-1,3-dihydro-2H-imidazo[4,5-b]pyridin-2-one]",< 3000 nM
> 7.30,"Cc1nc2[nH]c(=O)n(C[C@H]3COCCO3)c2cc1-c1cnc2[nH]cc(C)c2c1 [Example 47, 1-[(2S)-1,4-Dioxan-2-ylmethyl]-5-methyl-6-(3-methyl-1H-pyrrolo[2,3-b]pyridin-5-yl)-1,3-dihydro-imidazo[4,5-b]pyridin-2-one]",< 3000 nM
> 7.30,"Nc1c(-c2cnc3[nH]c(=O)n(C[C@H]4COCCO4)c3c2)cnc2[nH]ccc12 [Example 130, 6-(4-Amino-1H-pyrrolo[2,3-b]pyridin-5-yl)-1-[(2S)-1,4-dioxan-2-ylmethyl]-1,3-dihydro-2H-imidazo[4,5-b]pyridin-2-one]",3000 to 25000 nM
> 7.30,"O=C1CCOCC1Cn1c(=O)[nH]c2ncc(-c3cnc4[nH]ccc4c3)cc21 (stereo not shown) [Example 106, 1-[(4-Oxotetrahydro-2H-pyran-3-yl)methyl]-6-(1H-pyrrolo[2,3-b]pyridin-5-yl)-1,3-dihydro-2H-imidazo[4,5-b]pyridin-2-one]",

# From US8436012B2, “Imidazopyridin-2-one derivatives” (Daiichi Sankyo Company, Limited, priority 2008, dated 2013)
